In paper PMC9582194, “The effect of helix-inducing constraints and downsizing upon a transcription block survival-derived functional cJun antagonist” (Cell Reports. Physical Science, 2022):
Positions of bridges follow the written chain, without caps; N, C: chain ends. Residues, ends and D or L forms follow the SMILES beside them. No end group written: not given here.

What was measured:
[1] = biological target: T1, cJun (Homo sapiens, UniProt P05412); experiment: CD thermal denaturation of peptide-cJun heterodimers (Tm); format: binding; details: for Tm of peptide-cJun heterodimer: CD ellipticity at 222 nm, 1-90 °C, peptide (5 μM)/cJun (5 μM), 20 mM potassium phosphate, 150 mM potassium fluoride, 2 mM TCEP pH 7.4, two-state fit, duplicate experiments, ± one SD; for ΔTm of cJun heterodimer due to lactamization: cyclized versus its linear (non-lactamized) counterpart
T1 construct: The same 60 amino acid cJun construct, encompassing the entire bZIP domain, was used for all experiments
T1 sequence (P05412 252-315 limits assumed): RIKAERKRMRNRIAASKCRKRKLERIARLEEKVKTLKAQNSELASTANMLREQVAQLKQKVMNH
Procedure: (§1) The precise nature of the interaction between the cJun DBD and the rationally designed acidic domain of HW1 is unknown. HW1 was, therefore, iteratively truncated from the N terminus (HW2–6) to investigate the effect on cJun binding and cJun/TRE DNA antagonism (Table 1). Peptide fraction helicity (fH) was determined by quantifying the circular dichroism (CD) signal at 222 nm of peptide-only samples (Figure S1). Thermal denaturation experiments were then used to determine the melting temperature (Tm) of peptide-cJun heterodimers, which serves as an approximate measure of target engagement. CD was also used to investigate the functional activity of peptides in antagonizing the cJun/TRE DNA interaction. […] This provides a clear and direct measurement of the proportion of DNA bound to cJun. As antagonist peptide concentration was increased, the peak shifted to overlay with that of free TRE-DNA (Figure S4). For each peptide, the data were fit to a Hill equation to determine half-maximal inhibitory concentration (IC50) values, specific to these assay conditions, providing a clear comparative measure of antagonism. The same 60 amino acid cJun construct, encompassing the entire bZIP domain, was used for all experiments regardless of antagonist peptide length.
Figure 2 Iterative N-terminal truncation of HingeW reduces cJun binding and antagonism (A) Thermal denaturation profiles for iteratively truncated peptide (5 μM)/cJun (5 μM) heterodimer samples. (B) CD antagonism data produced by monitoring the shift in a DNA specific peak to provide a direct readout of cJun-DNA binding. Peptides are added at the indicated concentrations to a pre-incubated mixture of cJun (20 μM) and TRE DNA (5 μM). Data points were averaged from triplicate experiments, and error bars indicate one SD. The data were fitted to a Hill equation to determine IC50 values. Some higher peptide concentration data points for HW6 and HW9 are not shown in this plot for clarity.

[2] = Peptide fraction helicity by CD at 222 nm, peptide-only samples; format: physicochemical; details: for fH, peptide fraction helicity: CD signal at 222 nm of peptide-only samples, pH 7.4 phosphate/KF/TCEP buffer, duplicate experiments
Procedure: as §1

[3] = biological target: T2, cJun (60 amino acid construct encompassing the entire bZIP domain) (UniProt P05412 252-315); experiment: cell-based or functional assay
T2 sequence (P05412 252-315): as the sequence (P05412 252-315 limits assumed) above

[4] = biological target: T2, cJun (60 amino acid construct …); experiment: CD thermal denaturation; peptide (5 μM) with cJun (5 μM); ellipticity at 222 nm, 1°C to 90°C; 20 mM potassium phosphate, 150 mM potassium fluoride, 2 mM TCEP, pH 7.4; two-state fit gives the Tm of the peptide-cJun heterodimer; duplicate experiments; details: both partners purified

Tm of peptide-cJun heterodimer [1]	fH, peptide fraction helicity [2]	Molecule	other results
57.5 ± 1.1 °C	36.9%	Ac-EAKELVDEEDVLEEEIEQLEERNYALRKEIEDLQKQ-NH2 [HW20]	–
–	–	CC[C@H](C)[C@H](NC(=O)[C@H](CCC(=O)O)NC(=O)[C@H](CCCCN)NC(=O)[C@H](CCCNC(=N)N)NC(=O)[C@H](CC(C)C)NC(=O)[C@H](C)NC(=O)[C@H](Cc1ccc(O)cc1)NC(=O)[C@H](CC(N)=O)NC(=O)[C@H](CCCNC(=N)N)NC(=O)[C@H](CCC(=O)O)NC(=O)[C@H](CCC(=O)O)NC(=O)[C@H](CC(C)C)NC(=O)[C@H](CCC(N)=O)NC(=O)[C@H](CCC(=O)O)NC(=O)[C@@H](NC(=O)[C@H](CCC(=O)O)NC(=O)[C@@H]1CC(=O)NCCCC[C@H](NC(=O)[C@H](CCC(=O)O)NC(=O)[C@H](CCC(=O)O)NC(=O)[C@@H](NC(=O)[C@@H](NC(=O)[C@H](CC(C)C)NC(=O)[C@H](CCC(=O)O)NC(=O)[C@H](CCC(=O)O)NC(=O)[C@H](C)NC(=O)[C@H](CCC(=O)O)NC(C)=O)C(C)C)C(C)C)C(=O)N[C@@H](C(C)C)C(=O)N[C@@H](CC(C)C)C(=O)N[C@@H](CCC(=O)O)C(=O)N1)[C@@H](C)CC)C(=O)N[C@@H](CCC(=O)O)C(=O)N[C@@H](CC(=O)O)C(=O)N[C@@H](CC(C)C)C(=O)N[C@@H](CCC(N)=O)C(=O)N[C@@H](CCCCN)C(=O)N[C@@H](CCC(N)=O)C(N)=O [HW23] (Ac-EAEELVVEEKVLEDEIEQLEERNYALRKEIEDLQKQ-NH2; lactam 10-14)	ΔTm of cJun heterodimer due to lactamization [1]: ~9 °C
55.6 ± 1.2 °C	35.0%	Ac-EAEELVVEEDVLEEEIEQLEERNYALRKEIKDLQDQ-NH2 [HW28]	–
62.1 ± 1.4 °C	43.0%	Ac-LVVEEDVLEEEIEQLEERNYALRKEIEDLQKQLEDL-NH2 [HW12]	–
–	–	CC[C@H](C)[C@H](NC(=O)[C@H](CCC(=O)O)NC(=O)[C@H](CCCCN)NC(=O)[C@H](CCCNC(=N)N)NC(=O)[C@H](CC(C)C)NC(=O)[C@H](C)NC(=O)[C@H](Cc1ccc(O)cc1)NC(=O)[C@H](CC(N)=O)NC(=O)[C@H](CCCNC(=N)N)NC(=O)[C@H](CCC(=O)O)NC(=O)[C@H](CCC(=O)O)NC(=O)[C@H](CC(C)C)NC(=O)[C@H](CCC(N)=O)NC(=O)[C@H](CCC(=O)O)NC(=O)[C@@H](NC(=O)[C@H](CCC(=O)O)NC(=O)[C@H](CCC(=O)O)NC(=O)[C@H](CCC(=O)O)NC(=O)[C@H](CC(C)C)NC(=O)[C@@H](NC(=O)[C@H](CC(=O)O)NC(=O)[C@H](CCC(=O)O)NC(=O)[C@H](CCC(=O)O)NC(=O)[C@@H]1CC(=O)NCCCC[C@H](NC(=O)[C@H](C)NC(=O)[C@H](CCC(=O)O)NC(C)=O)C(=O)N[C@@H](CCC(=O)O)C(=O)N[C@@H](CC(C)C)C(=O)N[C@@H](C(C)C)C(=O)N1)C(C)C)[C@@H](C)CC)C(=O)N[C@@H](CCC(=O)O)C(=O)N[C@@H](CC(=O)O)C(=O)N[C@@H](CC(C)C)C(=O)N[C@@H](CCC(N)=O)C(=O)N[C@@H](CCCCN)C(=O)N[C@@H](CCC(N)=O)C(N)=O [HW21] (Ac-EAKELVDEEDVLEEEIEQLEERNYALRKEIEDLQKQ-NH2; lactam 3-7)	ΔTm of cJun heterodimer due to lactamization [1]: ~2 °C
55.5 ± 1.7 °C	37.0%	Ac-EAEELVVEEDVLEEEIKQLEDRNYALRKEIEDLQKQ-NH2 [HW24]	–
68.5 ± 1.1 °C	32.8%	Ac-LARENEELEKEAEELVVEEDVLEEEIEQLEERNYALRKEIEDLQKQLEKL-NH2 [HW2]	–
44.8 ± 1.2 °C	32.8%	Ac-EAEELVVEEDVLEEEIEQLEERNYALRKEIEDL-NH2 [HW9]	–
54.9 ± 1.2 °C	37.2%	Ac-EAEELVVEEKVLEDEIEQLEERNYALRKEIEDLQKQ-NH2 [HW22]	–
55.1 ± 1.1 °C	38.0%	EDVLEEEIEQLEERNYALRKEIEDLQKQLEKLGAP-NH2 (C-terminus assumed) [HW6]	–
67.9 ± 0.9 °C	38.3%	Ac-LEKEAEELVVEEDVLEEEIEQLEERNYALRKEIEDLQKQLEKL-NH2 [HW3]	–
56.5 ± 1.6 °C	38.7%	Ac-KEAEDLVVEEDVLEEEIEQLEERNYALRKEIKDLQDQ-NH2 [HW18]	–
56.2 ± 1.3 °C	36.0%	Ac-EAEELVVEEDVLEEEIEQLEEKNKALKDEIEDLQKQY-NH2 [HW26]	–
64.3 ± 1.3 °C	45.6%	Ac-LVVEEDVLEEEIEQLEEKNKALKDEIEDLQKQLEKLY-NH2 [HW10]	–
58.5 ± 1.0 °C	40.1%	CC[C@H](C)[C@H](NC(=O)[C@H](CCC(=O)O)NC(=O)[C@H](CCCCN)NC(=O)[C@H](CCCNC(=N)N)NC(=O)[C@H](CC(C)C)NC(=O)[C@H](C)NC(=O)[C@H](Cc1ccc(O)cc1)NC(=O)[C@H](CC(N)=O)NC(=O)[C@H](CCCNC(=N)N)NC(=O)[C@H](CCC(=O)O)NC(=O)[C@H](CCC(=O)O)NC(=O)[C@H](CC(C)C)NC(=O)[C@H](CCC(N)=O)NC(=O)[C@H](CCC(=O)O)NC(=O)[C@@H](NC(=O)[C@H](CCC(=O)O)NC(=O)[C@H](CCC(=O)O)NC(=O)[C@H](CCC(=O)O)NC(=O)[C@H](CC(C)C)NC(=O)[C@@H](NC(=O)[C@H](CC(=O)O)NC(=O)[C@H](CCC(=O)O)NC(=O)[C@H](CCC(=O)O)NC(=O)[C@@H](NC(=O)[C@@H](NC(=O)[C@H](CC(C)C)NC(=O)[C@@H]1CC(=O)NCCCC[C@H](NC(C)=O)C(=O)N[C@@H](CCC(=O)O)C(=O)N[C@@H](C)C(=O)N[C@@H](CCC(=O)O)C(=O)N1)C(C)C)C(C)C)C(C)C)[C@@H](C)CC)C(=O)N[C@@H](CCCCN)C(=O)N[C@@H](CC(=O)O)C(=O)N[C@@H](CC(C)C)C(=O)N[C@@H](CCC(N)=O)C(=O)N[C@@H](CC(=O)O)C(=O)N[C@@H](CCC(N)=O)C(N)=O [HW19] (Ac-KEAEDLVVEEDVLEEEIEQLEERNYALRKEIKDLQDQ-NH2; lactam 1-5 (inferred))	change in fH due to lactamization ([2]; cyclized versus its linear counterpart): ~1%
53.8 ± 5.3 °C	31.2%	Ac-EAEELVVEEDVLEEEIEQLEERNYALRKEIEDLQ-NH2 [HW16]	–
–	–	EDVLEEEIEQLEERNYALRKEIEDLQKQLEKLGAP-NH2 (truncation NΔ28 of HW1: the leucine zipper (LZ) only; also called LZ domain of HW1; source: synthetic peptide (Fmoc SPPS, RP-HPLC purified)) [HW6]	IC50 CD: peptide added to pre-incubated cJun (20 μM) and TRE DNA (5 μM); blocks cJun/TRE DNA binding [3]: 130 µM; Tm of the peptide-cJun heterodimer [4]: 55.1 °C
–	–	Ac-LEKEAEELVVEEDVLEEEIEQLEERNYALRKEIEDLQKQLEKL-NH2 (truncation NΔ17 CΔ3 of HW1; source: synthetic peptide (Fmoc SPPS, RP-HPLC purified)) [HW3]	IC50 CD: peptide added to pre-incubated cJun (20 μM) and TRE DNA (5 μM); blocks cJun/TRE DNA binding [3]: 33.7 µM; Tm of the peptide-cJun heterodimer [4]: 67.9 °C
–	–	Ac-EAEELVVEEDVLEEEIEQLEEKNKALKDEIEDLQKQY-NH2 (lactam 24-28; SMILES CC[C@H](C)[C@H](NC(=O)[C@H](CCC(=O)O)NC(=O)[C@@H]1CC(=O)NCCCC[C@H](NC(=O)[C@H](CC(N)=O)NC(=O)[C@H](CCCCN)NC(=O)[C@H](CCC(=O)O)NC(=O)[C@H](CCC(=O)O)NC(=O)[C@H](CC(C)C)NC(=O)[C@H](CCC(N)=O)NC(=O)[C@H](CCC(=O)O)NC(=O)[C@@H](NC(=O)[C@H](CCC(=O)O)NC(=O)[C@H](CCC(=O)O)NC(=O)[C@H](CCC(=O)O)NC(=O)[C@H](CC(C)C)NC(=O)[C@@H](NC(=O)[C@H](CC(=O)O)NC(=O)[C@H](CCC(=O)O)NC(=O)[C@H](CCC(=O)O)NC(=O)[C@@H](NC(=O)[C@@H](NC(=O)[C@H](CC(C)C)NC(=O)[C@H](CCC(=O)O)NC(=O)[C@H](CCC(=O)O)NC(=O)[C@H](C)NC(=O)[C@H](CCC(=O)O)NC(C)=O)C(C)C)C(C)C)C(C)C)[C@@H](C)CC)C(=O)N[C@@H](C)C(=O)N[C@@H](CC(C)C)C(=O)N[C@@H](CCCCN)C(=O)N1)C(=O)N[C@@H](CCC(=O)O)C(=O)N[C@@H](CC(=O)O)C(=O)N[C@@H](CC(C)C)C(=O)N[C@@H](CCC(N)=O)C(=O)N[C@@H](CCCCN)C(=O)N[C@@H](CCC(N)=O)C(=O)N[C@@H](Cc1ccc(O)cc1)C(N)=O, cyclized form of the pair HW26/HW27; NΔ20 CΔ7; source: synthetic peptide (Fmoc SPPS, on-resin lactamization, RP-HPLC purified)) [HW27]	IC50 CD: peptide added to pre-incubated cJun (20 μM) and TRE DNA (5 μM); blocks cJun/TRE DNA binding [3]: 94.1 µM; Tm of the peptide-cJun heterodimer [4]: 58.9 °C
–	–	Ac-EAEELVVEEDVLEEEIEQLEERNYALRKEIEDL-NH2 (truncation NΔ20 CΔ10 of HW1; source: synthetic peptide (Fmoc SPPS, RP-HPLC purified)) [HW9]	IC50 CD: peptide added to pre-incubated cJun (20 μM) and TRE DNA (5 μM); blocks cJun/TRE DNA binding [3]: 1210 µM; Tm of the peptide-cJun heterodimer [4]: 44.8 °C
